Laboratory results taken from patent publication US4055640A, “Compositions and methods for controlling the growth of bacteria, fungi and algae using certain derivatives of N-(2,2-dichlorovinyl)salicylamides” (Nippon Kayaku Co., Ltd., priority 1975, dated 1977).

Columns and labels:
[1] = system: Xanthomonas citri (citrus canker); test: Exterminating test on citrus canker (Experimental Example 6); type: in vivo; settings: 1,000 ppm, 2 weeks after inoculation
Experimental: (§1) Exterminating test on citrus canker. 4-year-old summer orange seedlings, planted in unglazed pots having a diameter of 20 cm, were employed in this test. Eighty percent (80%) wettable powder of the present invention was diluted with water, and sprayed over the seedlings in an amount of 50 ml per pot. The leaves of the seedlings were inoculated Xanthomonas citri by means of a needle. After the inoculation, the seedlings were maintained in a moist chamber at 25° C for 24 hours. Then the pots were transferred into the greenhouse. Streptomycin 20% wettable powder was used as a control, and tested by the same method. After 2 weeks after the inoculation, degrees of disease attack were observed, and an "Effect Index" was calculated as follows: [formula]

summer orange seedlings = test: Phytotoxicity on summer orange seedlings (Experimental Example 6); type: in vivo; settings: 1,000 ppm
Experimental: as §1

Aspergillus niger [2] = test: Minimum inhibitory amount, dilution methods (Example 24); type: cell-based; settings: (1) potato-dextrose agar dilution method
Text: (§2) Bactericidal activity and fungicidal activity of the active compounds of the present invention were examined by potato-dextrose agar dilution method, or [2] glucose bouillon medium dilution method. The results are shown in Table 10 below as the minimum inhibitory concentration (the minimum concentration of active compound found to produce 100% control of the test bacteria and fungi).

Bacillus subtilis [3] = test: as above; type: cell-based; settings: (2) glucose bouillon medium dilution method
Text: as §2

Cladosporium harbarum [4] = test: as above; type: cell-based; settings: (1) potato-dextrose agar dilution method
Text: as §2

Escherichia coli [5] = test: as above; type: cell-based; settings: (2) glucose bouillon medium dilution method
Text: as §2

Penicillium Citrinum [6] = test: as above; type: cell-based; settings: (1) potato-dextrose agar dilution method
Text: as §2

Staphylococcus aureus [7] = test: as above; type: cell-based; settings: (2) glucose bouillon medium dilution method
Text: as §2

[8] = system: seedling blight of rice plant (pathogen Fusarium sp. and Rhizoctonia sp.); test: Exterminating test on seedling blight of rice plant (Experimental Example 1); type: in vivo; settings: 0.25g/box a.i., 5% dust mixed with soil
Experimental: Exterminating test on seedling blight of rice plant Nursery boxes (60 × 30 × 3 cm) were filled with soil which were contaminated with pathogen (Fusarium sp. and Rhizoctonia sp.) The dust in which the present compound was contained in a ratio of 5% by weight was added in the box in a ratio of 5 grams per box and mixed well with soil. Thereafter, seeds of rice plant (variety: Nihonbare) were sowed in drills at a rate of 0.3 liter per box and grown up in a lighting chamber at 17° C. After 7 days from the sowing, the boxes were carried out in the field. Furthermore, 10 days thereafter the observations were made. Four percent (4%) dust of 3-hydroxy-5-methyl isoxazol (hereinafter referred to as hydroxyisoxazol) on the market was used as a control and tested by the same method. The test results are shown in Table 2 with a "percentage of healthy seedlings". The percentage of healthy seedlings was calculated as follows: […]

[9] = system: Aspergillus niger, Penicillium citrinum, Cladosporium harbarum and chaetomium globosum; test: Degree of growth inhibition of fungi on treated beach plates (Example 25); type: cell-based; parameters: scale not given here; settings: numerical rating, 2 weeks
Experimental: The emulsifiable concentrates which were prepared by Example 20 were diluted with water 400 times and 800 times to form emulsions.
(§3) The square plates of beach of which a side was 5 cm long and thickness was 5 mm were dipped into the emulsion for 2 minutes and dried for 24 hours at room temperature.
(§4) The square plates were placed on the surface of agar plates. The suspensions which contained spores of Aspergillus niger, Penicillium citrinum, Cladosporium harbarum and chaetomium globosum were respectively sprayed on the agar plates and the square plates.
The test fungi were cultivated in the incubator at the humidity of 95% and the temperature of 28° C for 2 weeks. The degree of growth inhibition is defined in terms of the following numerical ratings.

[10] = system: Fusarium wilt of cucumber; test: Exterminating test on Fusarium wilt of cucumber (Experimental Example 4); type: in vivo, Fusarium oxysporum f, cucumerinum; settings: 500 ppm, soil drench 100 ml per pot, two weeks
Experimental: Exterminating test on Fusarium wilt of cucumber Twenty (20) grams of infected soil was added uniformly into each pot which was filled with steam sterilized field soil, then 18 seeds of cucumber (variety; Tokiwazibai) were sowed in each pot. Eighty percent (80%) wettable powder of the present invention was diluted with water to obtain a suspension, and each pot was drenched with the suspension in an amount of 100 ml. Fifty percent (50%) wettable powder of methyl-1-(butylcarbamoyl) 2-benzimidazol carbamate (hereinafter referred to as Benlate) on the market was used as a control and tested by the same method. After two weeks of planting, degrees attacked by the pathogen was observed and a "percentage of healthy seedlings" was calculated as follows: [formula]

[11] = system: Rhizoctonia solani (damping-off of cucumber); test: Exterminating test on damping-off of cucumber (Experimental Example 3); type: in vivo; settings: 1,000 ppm, soil drench 50 ml per pot, 10 days
Experimental: Exterminating test on damping-off of cucumber
The pots (diameter, 12 cm) were filled with field soil and then soil infected by adding Rhizoctonia solani in an amount of 5 grams per pot uniformly into the pots. Thereafter, 10 seeds of cucumber (variety: Azumamidori) were sown in each pot.
Eighty percent (80%) wettable powder of the present invention was diluted with water to obtain a suspension and each pot was drenched with the suspension in an amount of 50 milliliters. Then, the pots were transferred to the greenhouse. Fifty percent (50%) wettable powder of pentachloronitro benzene (hereinafter referred to as PCNB) on the market was used as a control and tested by the same method. After 10 days of the inoculation, degrees attacked by the pathogen were observed and a "Percentage of healthy seedlings" was calculated. The "Percentage of healthy seedlings" was calculated as follows: [formula]

green algae = test: Degree of propagation on slime test boards (Example 27); type: cell-based; settings: same method, shaking culture for 2 days
Experimental: Zero point zero two (0.02) part of active compounds in the form of 10% water soluble concentrate which was prepared by Example 23 was added into 100 parts of Waxman's liquid medium. Peices of Wood iron (hereafter referred to as the slime test boards) were soaked into the Waxman's liquid medium. The bacteria which were gathered from circular water system were inoculated upon the Waxman's liquid medium and incubated at 27°-34° C by shaking culture for 2 days. The degree of propagation of the bacteria on the slime test boards was examined.
Thegrowth-inhibiting activity of active compounds against the fungi and the green algae was also examined by the same method as mentioned above.
The degree of propagation of the bacteria, fungi or green algae on the test boards is defined in terms of the following symbols.

[12] = system: Cladosporium cucumerinum (cucumber scab); test: Exterminating test on cucumber scab (Experimental Example 2); type: in vivo; parameters: scale not given here; settings: 500 ppm, 5 days after inoculation
Experimental: Exterminating test on cucumber scab
(§5) The cucumber seeds (variety: Sagamihanjiro) were sown in pots (diameter 18 cm). Eighty percent (80%) wettable powder (contents of active compound: 80%) of the present invention was diluted with water to obtain a suspension. The suspension was sprayed over the cucumber seedlings of the stage of 3-4 leaves in an amount of 20 ml per pot. After 24 hours, these pots were inoculated by means of spray of spore suspension of Cladosporium cucumerinum. The thus-inoculated seedlings were placed in a moist chamber at 20° C for 24 hours. The pots were continuously kept in a greenhouse at 20° C. The following wettable powders on the market were used as controls.
70% wettable powder of 1,2-bis (3-methoxy carbonyl-2-thioureid) benzene (hereinafter referred to as "thiophanate methyl") on the market.
75% wettable powder of ethylene bis (dithiocarbamic acid) manganese (hereinafter referred to as "maneb") on the market. After 5 days of the inoculation, degrees attached by the pathogen were observed and the results were shown in Table 3 with an "Infected Index". The "Infected Index" was calculated as follows: [formula] A : Number of leaves which were killed by hard attack B : Number of leaves severely attacked
C : number of leaves slightly attacked
D : number of healthy leaves

[13] = system: cucumber seedlings (variety: Sagamihanjiro); test: Phytotoxicity on cucumber seedlings (Experimental Example 2); type: in vivo; settings: 500 ppm
Experimental: as §5

Aspergillus niger [14] = test: Region of growth-inhibition around treated cotton cloth (Example 26); type: cell-based; settings: emulsifiable concentrate diluted 100 times
Experimental: (§6) The emulsifiable concentrates which were prepared by Example 20 were diluted with water 100 times to form an emulsion. A cloth of cotton was soaked into each emulsion for 2 minutes. The clothes were dried at room temperature and cut into a square of which a side was 1 cm long. Each kind of test bacteria and fungi was inoculated, separately, on plates of potato-agar and one square cloth placed on each of such plates. Test bacteria and fungi were cultivated at 28° C for 4 days. The width of the region of growth-inhibition which was formed a circumference of the cloth was measured.

Bacillus subtilis [15] = test: as above; type: cell-based; settings: emulsifiable concentrate diluted 100 times
Experimental: as §6

Penicillium Citrinum [16] = test: as above; type: cell-based; settings: emulsifiable concentrate diluted 100 times
Experimental: as §6

Staphylococcus oureus = test: as above; type: cell-based; settings: emulsifiable concentrate diluted 100 times
Experimental: as §6

Aspergillus niger [17] = test: Minimum inhibitory concentration, dilution methods (Example 14); type: cell-based; settings: (1) potato-dextrose agar dilution method
Text: as §2, with “Bacteriocidal activity” for “Bactericidal activity”, “method, [2] waxman's liquid medium dilution method” for “method,”, “or [3]” for “or [2]”, “Table 4” for “Table 10”

Bacillus subtilis [18] = test: as above; type: cell-based; settings: (3) glucose bouillon medium dilution method
Text: as §2, with “Bacteriocidal activity” for “Bactericidal activity”, “method, [2] waxman's liquid medium dilution method” for “method,”, “or [3]” for “or [2]”, “Table 4” for “Table 10”

Cladosporium harbarum [19] = test: as above; type: cell-based; settings: (1) potato-dextrose agar dilution method
Text: as §2, with “Bacteriocidal activity” for “Bactericidal activity”, “method, [2] waxman's liquid medium dilution method” for “method,”, “or [3]” for “or [2]”, “Table 4” for “Table 10”

Escherichia coli [20] = test: as above; type: cell-based; settings: (3) glucose bouillon medium dilution method
Text: as §2, with “Bacteriocidal activity” for “Bactericidal activity”, “method, [2] waxman's liquid medium dilution method” for “method,”, “or [3]” for “or [2]”, “Table 4” for “Table 10”

Penicillium Citrinum [21] = test: as above; type: cell-based; settings: (1) potato-dextrose agar dilution method
Text: as §2, with “Bacteriocidal activity” for “Bactericidal activity”, “method, [2] waxman's liquid medium dilution method” for “method,”, “or [3]” for “or [2]”, “Table 4” for “Table 10”

Staphylococcus aureus [22] = test: as above; type: cell-based; settings: (3) glucose bouillon medium dilution method
Text: as §2, with “Bacteriocidal activity” for “Bactericidal activity”, “method, [2] waxman's liquid medium dilution method” for “method,”, “or [3]” for “or [2]”, “Table 4” for “Table 10”

[23] = system: Aspergillus niger, Penicillium citrinum, Cladosporium harbarum and chaetomium globosum; test: Degree of growth inhibition of fungi on treated beach plates (Example 17); type: cell-based; parameters: scale not given here; settings: numerical rating, 2 weeks
Experimental: The emulsifiable concentrates which were prepared by Example 10 were diluted with water 400 times and 800 times to form emulsions.
as §3, §4
The test fungi were cultivated in the incubator at the humidity of 95% and the temperature of 28° C for 2 weeks.
The degree of growth inhibition is defined in terms of the following numerical ratings.

## O=C(NC=C(Cl)Cl)c1cc(Br)ccc1[O-].O=C(NC=C(Cl)Cl)c1cc(Br)ccc1[O-].[Mn+2] [compound 29]
[1]
  Effect Index: 56.2
Summer orange seedlings
  Phytotoxicity: Nil
Aspergillus niger [2]
  Minimum inhibitory amount: 20 µg/mL
Bacillus subtilis [3]
  Minimum inhibitory amount: 5 µg/mL
Cladosporium harbarum [4]
  Minimum inhibitory amount: 10 µg/mL
Escherichia coli [5]
  Minimum inhibitory amount: 60 µg/mL
Penicillium Citrinum [6]
  Minimum inhibitory amount: 20 µg/mL
Staphylococcus aureus [7]
  Minimum inhibitory amount: 10 µg/mL
[8]
  Percentage of healthy seedlings: 69.8%
[9]; 0.0125 %
  Degree of growth inhibition: 2
[9]; 0.025 %
  Degree of growth inhibition: 3
[10]
  Percentage of healthy seedlings: 57.5%
[11]
  Percentage of healthy seedlings: 55%

## O=C(NC=C(Cl)Cl)c1cc(Br)ccc1[O-].O=C(NC=C(Cl)Cl)c1cc(Br)ccc1[O-].[Zn+2] [compound 25]
[1]
  Effect Index: 80.6
Summer orange seedlings
  Phytotoxicity: Nil
Aspergillus niger [2]
  Minimum inhibitory amount: 20 µg/mL
Bacillus subtilis [3]
  Minimum inhibitory amount: 5 µg/mL
Cladosporium harbarum [4]
  Minimum inhibitory amount: 10 µg/mL
Escherichia coli [5]
  Minimum inhibitory amount: 60 µg/mL
Penicillium Citrinum [6]
  Minimum inhibitory amount: 20 µg/mL
Staphylococcus aureus [7]
  Minimum inhibitory amount: 5 µg/mL
Green algae
  Degree of propagation: + (the area of propagation is 1-25% on the slime test boards.)
[12]
  Infected Index: 12.1
[13]
  Phytotoxicity: Nil
Aspergillus niger [14]
  width of the region of growth-inhibition: 6 mm
Bacillus subtilis [15]
  width of the region of growth-inhibition: 6 mm
Penicillium Citrinum [16]
  width of the region of growth-inhibition: 5 mm
Staphylococcus oureus
  width of the region of growth-inhibition: 6 mm
[9]; 0.0125 %
  Degree of growth inhibition: 2
[9]; 0.025 %
  Degree of growth inhibition: 3
[10]
  Percentage of healthy seedlings: 49.5%
[11]
  Percentage of healthy seedlings: 80%

## O=C(NC=C(Cl)Cl)c1ccccc1[O-].O=C(NC=C(Cl)Cl)c1ccccc1[O-].[Cu+2] [compound 26]
[1]
  Effect Index: 47.5
Summer orange seedlings
  Phytotoxicity: Nil
Aspergillus niger [17]
  minimum inhibitory concentration: 10 mc g/ml
Bacillus subtilis [18]
  minimum inhibitory concentration: 5 mc g/ml
Cladosporium harbarum [19]
  minimum inhibitory concentration: 5 mc g/ml
Escherichia coli [20]
  minimum inhibitory concentration: 60 mc g/ml
Penicillium Citrinum [21]
  minimum inhibitory concentration: 10 mc g/ml
Staphylococcus aureus [22]
  minimum inhibitory concentration: 5 mc g/ml
[10]
  Percentage of healthy seedlings: 58.0%
[11]
  Percentage of healthy seedlings: 100%
[23]; 0.0125 %
  Degree of growth inhibition: 3
[23]; 0.025 %
  Degree of growth inhibition: 3
